According to patent EP4759807A1, “PROTEOLYSIS TARGETING CHIMERA COMPOUND FOR DEGRADING IRAK4 AND USE THEREOF” (Shenzhen Zhongge Biological Technology Co., Ltd., priority 2023, dated 2025):
Counter-ions that a name gives are not always drawn. Like-named read-outs stand apart in the source and are kept apart here.

Molecular target: T1, IRAK4 (Homo sapiens, UniProt Q9NWZ3)
T1 sequence (Q9NWZ3 1-460): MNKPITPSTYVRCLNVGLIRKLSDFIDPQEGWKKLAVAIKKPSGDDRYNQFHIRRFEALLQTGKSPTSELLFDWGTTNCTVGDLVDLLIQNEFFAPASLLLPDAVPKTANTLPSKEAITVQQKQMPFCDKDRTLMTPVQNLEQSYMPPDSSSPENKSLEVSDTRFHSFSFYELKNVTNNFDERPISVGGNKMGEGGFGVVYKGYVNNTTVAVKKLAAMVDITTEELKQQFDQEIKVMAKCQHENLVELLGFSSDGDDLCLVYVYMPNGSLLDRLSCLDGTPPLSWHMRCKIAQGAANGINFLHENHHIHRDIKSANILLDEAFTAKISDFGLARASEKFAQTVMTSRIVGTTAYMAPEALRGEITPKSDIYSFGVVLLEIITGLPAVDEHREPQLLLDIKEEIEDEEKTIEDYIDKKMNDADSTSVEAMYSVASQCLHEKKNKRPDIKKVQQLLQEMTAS
Experiment: Hibit fluorescence detection of proteolysis (IRAK4-HiBiT in HEK293T cells)
Format: cell-based
Parameters: host or cells: HEK293T (ATCC)
Settings: for Dmax: HEK-293T; for DC50: IRAK4-HiBiT, HEK293T cells, 24 h
Outline: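 Degradation read-out: luminescence from lytic HiBiT detection (15 min, room temperature) after 24 h compound exposure (37 °C, 5% CO2) of HEK293T cells transiently expressing IRAK4 fused to a HiBiT tag. Data fitted to a bell-shaped four-parameter model giving two EC50 values.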

SMILES: Cn1c(=O)n(C2CCC(=O)NC2=O)c2cccc(N3CCC(N4CCN(C[C@H]5CC[C@H](n6cc(-n7cc(-c8cnn9ccc(N%10CCS(=O)(=O)CC%10)nc89)nn7)c(C(F)F)n6)CC5)CC4)CC3)c21 (some centres unmarked) [Example 111, 3-(4-(4-(((1r,4r)-4-(3-(difluoromethyl)-4-(4-(5-(1,1-dioxodimorpholinyl)pyrazolo[1,5-a]pyrimidin-3-yl)-1H-1,2,3-triazol-1-yl)-1H-pyrazol-1-ylcyclohexyl)methyl)piperazin-1-yl)piperidin-1-yl)-3-methyl-2-oxo-2,3-dihydro-1H-benzo[d]imidazol-1-yl)pyridine-2,6-dione]
- Dmax: > 80%
- DC50: 0.5 to 1 nM

SMILES: Cn1c(=O)n(C2CCC(=O)NC2=O)c2cccc(N3CCN(C4CCN(C[C@H]5CC[C@H](n6cc(-n7cc(-c8cnn9ccc(N%10CCC[C@H](N)C%10)nc89)nn7)c(C(F)F)n6)CC5)CC4)CC3)c21 (stereo partly drawn) [Example 117, 3-{4-[4-(1-{[(1S,4r)-4-[3-(difluoromethyl)-4-(4-{5-[(3S)-3-aminohexahydropyridin-1-yl]pyrazolo[1,5-a]pyrimidin-3-yl}-1,2,3-triazol-1-yl)pyrazol-1-yl]cyclohexyl]methyl}hexahydropyridin-4-yl)piperazin-1-yl]-3-methyl-2-oxobenzo[d]imidazol-1-yl}hexahydropyridine-2,6-dione hydrochloride]
- Dmax: > 80%
- DC50: 1 to 5 nM

SMILES: Cn1c(=O)n(C2CCC(=O)NC2=O)c2cccc(N3CCC4(CCN(C[C@H]5CC[C@H](n6cc(-n7cc(-c8cnn9ccc(N%10CCNCC%10)nc89)nn7)c(C(F)F)n6)CC5)CC4)C3)c21 (some centres unmarked) [Example 130, 3-(4-(8-(((1r,4r)-4-(3-(difluoromethyl)-4-(4-(5-(piperazin-1-yl)pyrazolo[1,5-a]pyrimidin-3-yl)-1H-1,2,3-triazol-1-yl)-1H-pyrazol-1-yl)cyclohexyl)methyl)-2,8-diazaspiro[4.5]dec-2-yl)-3-methyl-2-oxo-2,3-dihydro-1H-benzo[d]imidazol-1-yl)piperidine-2,6-dione dihydrochloride]
- Dmax: > 80%
- DC50: 0.5 to 1 nM

SMILES: NC(=O)c1cnn2c(-c3cn(-c4cn([C@H]5CC[C@H](CN6CCN(c7ccc(C(=O)NC8CCC(=O)NC8=O)c(F)c7)CC6)CC5)nc4C(F)F)nn3)ccc2c1 (some centres unmarked) [Example 31]
- Dmax: 70 to 80%
- DC50: > 5 nM

SMILES: Cn1c(=O)n(C2CCC(=O)NC2=O)c2cccc(N3CC4(CCN(C[C@H]5CC[C@H](n6cc(-n7cc(-n8ccc9cc(C(N)=O)cnc98)nn7)c(C(F)F)n6)CC5)CC4)C3)c21 (some centres unmarked) [Example 105, 1-(1-(3-(difluoromethyl)-1-((1r,4r)-4-((2-(1-(2,6-dioxopiperidin-3-yl)-3-methyl-2-oxo-2,3-dihydro-1H-benzo[d]imidazol-4-yl)-2,7-diazaspiro[3.5]non-7-yl)methyl)cyclohexyl)-1H-pyrazol-4-yl)-1H-1,2,3-triazol-4-yl)-1H-pyrrolo[2,3-b]pyridine-5-carboxamide]
- Dmax: > 80%
- DC50: < 0.5 nM

SMILES: CN(C[C@H]1CC[C@H](n2cc(-n3cc(-c4cnn5ccc(N6CCOCC6)nc45)nn3)c(C(F)F)n2)CC1)C1CCC2(CC1)CC(Nc1cccc3c1n(C)c(=O)n3C1CCC(=O)NC1=O)C2 (some centres unmarked) [Example 23, 3-(4-((7-((((1r,4r)-4-(3-(difluoromethyl)-4-(4-(5-morpholinopyrazolo[1,5-a]pyrimidin-3-yl)-1H-1,2,3-triazol-1-yl)-1H-pyrazol-1-yl)cyclohexyl)methyl)(methyl)amino)spiro[3.5]nonan-2-yl)amino)-3-methyl-2-oxo-2,3-dihydro-1H-benzo[d]imidazol-1-yl)piperidine-2,6-dione]
- Dmax: > 80%
- DC50: < 0.5 nM

SMILES: Cn1c(=O)n(C2CCC(=O)NC2=O)c2cccc(C#CC3CCN(C[C@H]4CC[C@H](n5cc(-n6cc(-c7cnn8ccc(N9CCOCC9)nc78)nn6)c(C(F)F)n5)CC4)CC3)c21 (some centres unmarked) [Example 17]
- Dmax: 70 to 80%
- DC50: 1 to 5 nM

SMILES: Cn1c(=O)n(C2CCC(=O)NC2=O)c2cccc(N3CCC4(CCN(C[C@H]5CC[C@H](n6cc(-n7cc(-c8ccc9cc(C(N)=O)cnn89)nn7)c(C(F)F)n6)CC5)C4)C3)c21 (some centres unmarked) [Example 80, 7-(1-(3-(difluoromethyl)-1-((1r,4r)-4-(7-(1-(2,6-dioxy-3-yl)-3-methyl-2-oxo-2,3-dihydro-1H-benzo[d]imidazol-4-yl)-2,7-diazaspiro[4.4]non-2-yl)methyl)-1H-pyrazol-4-yl)-1H-1,2,3-triazol-4-yl)pyrrolo[1,2-b]pyridazine-3-carboxamide]
- Dmax: > 80%
- DC50: < 0.5 nM

SMILES: O=C1CCC(NC(=O)c2ccc(N3CCN(C[C@H]4CC[C@H](n5cc(-n6cc(-c7cnn8ccc(N9CCOCC9)nc78)nn6)c(C(F)F)n5)CC4)CC3)cc2F)C(=O)N1 (some centres unmarked) [Example 28]
- Dmax: 60 to 70%
- DC50: > 5 nM

SMILES: Cn1c(=O)n(C2CCC(=O)NC2=O)c2cccc(C#CCOC3CCN(C[C@H]4CC[C@H](n5cc(-n6cc(-n7ccc8cc(C(N)=O)cnc87)nn6)c(C(F)F)n5)CC4)CC3)c21 (some centres unmarked) [Example 106, 1-{1-[3-(difluoromethyl)-1-[(1r,4r)-4-{[4-({3-[1-(2,6-dioxohexahydropyridin-3-yl)-3-methyl-2-oxobenzo[d]imidazol-4-yl]prop-2-ynyl}oxy)hexahydropyridin-1-yl]methyl}cyclohexyl]pyrazol-4-yl]-1,2,3-triazol-4-yl}pyrrolo[2,3-b]pyridine-5-carboxamide]
- Dmax: 60 to 70%
- DC50: < 0.5 nM

SMILES: C[C@@H]1CN(C[C@H]2CC[C@H](n3cc(-n4cc(-c5ccc6cc(C(N)=O)cnn56)nn4)c(C(F)F)n3)CC2)CCN1c1cccc2c1n(C)c(=O)n2C1CCC(=O)NC1=O (stereo partly drawn) [Example 51, 7-(1-(3-(difluoromethyl)-1-((1R,4r)-4-(((3R)-4-(1-(2,6-dioxopiperidin-3-yl)-3-methyl-2-oxo-2,3-dihydro-1H-benzo[d]imidazol-4-yl)-3-methylpiperazin-1-yl)methyl)cyclohexyl)-1H-pyrazol-4-yl)-1H-1,2,3-triazol-4-yl)pyrrolo[1,2-b]pyridazine-3-carboxamide]
- Dmax: > 80%
- DC50: < 0.5 nM

SMILES: Cn1c(=O)n(C2CCC(=O)NC2=O)c2cccc(N3CCC(N4CCN(C[C@H]5CC[C@H](n6cc(-n7cc(-c8cnn9ccc(N%10CC%11(COC%11)C%10)nc89)nn7)c(C(F)F)n6)CC5)CC4)CC3)c21 (some centres unmarked) [Compound 224]
- Dmax: > 80%
- DC50 (read-out: DC50): < 0.5 nM

SMILES: Cn1c(=O)n(C2CCC(=O)NC2=O)c2cccc(C#CCOC3CCN(C[C@H]4CC[C@H](n5cc(-n6cc(-c7ccc8cc(C(N)=O)cnn78)nn6)c(C(F)F)n5)CC4)CC3)c21 (some centres unmarked) [Example 65]
- Dmax: 60 to 70%
- DC50: < 0.5 nM

SMILES: Cn1c(=O)n(C2CCC(=O)NC2=O)c2cccc(N3CCC(N4CCN(C[C@H]5CC[C@H](n6cc(-n7cc(-c8cnn9cc(C#N)cnc89)nn7)c(C(F)F)n6)CC5)CC4)CC3)c21 (some centres unmarked) [Compound 197]
- Dmax: 60 to 70%
- DC50 (read-out: DC50): 1 to 5 nM

SMILES: NC(=O)c1cnn2c(-c3cn(-c4cn([C@H]5CC[C@H](CN6CCN(c7ccc8c(c7)C(=O)N(C7CCC(=O)NC7=O)C8=O)CC6)CC5)nc4C(F)F)nn3)ccc2c1 (some centres unmarked) [Example 70, 7-(1-(3-(difluoromethyl)-1-((1r,4r)-4-(4-(2-(2,6-dioxopiperidin-3-yl)-1,3-dioxoisoindolin-5-yl)piperazin-1-yl)methyl)cyclohexyl-1H-pyrazol-4-yl)-1H-1,2,3-triazol-4-yl)pyrrolo[1,2-b]pyridazine-3-carboxamide]
- Dmax: 70 to 80%
- DC50: 1 to 5 nM

SMILES: Cn1c(=O)n(C2CCC(=O)NC2=O)c2cccc(NC(=O)N3CCC4(CCN(C[C@H]5CC[C@H](n6cc(-n7cc(-c8cnn9ccc(N%10CCOCC%10)nc89)nn7)c(C(F)F)n6)CC5)C4)CC3)c21 (some centres unmarked) [Example 18, 2-(((1r,4r)-4-(3-(difluoromethyl)-4-(4-(5-morpholinopyrazolo [1,5-a]pyrimidin-3-yl)-1H-1,2,3-triazol-1-yl)-1H-pyrazol-1-yl)cyclohexyl)methyl)-N-(1-(2,6-dioxopiperidin-3-yl)-3-methyl-2-oxo-2,3-dihydro-1H-benzo[d]imidazol-4-yl)-2,8-diazaspiro[4.5]decan-8-carboxamide]
- Dmax: > 80%
- DC50 (read-out: DC50): > 5 nM

SMILES: Cn1c(=O)n(C2CCC(=O)NC2=O)c2cccc(N3CCN(C4CN(C[C@H]5CC[C@H](n6cc(-n7cc(-c8cnn9ccc(N%10CCOCC%10)nc89)nn7)c(C(F)F)n6)CC5)C4)CC3)c21 (some centres unmarked) [Example 44]
- Dmax: > 80%
- DC50: < 0.5 nM

SMILES: Cn1c(=O)n(C2CCC(=O)NC2=O)c2cccc(CCCN3CCOC(CNCC4CCC(n5cc(-n6cc(-c7cnn8ccc(N9CCOCC9)nc78)nn6)c(C(F)F)n5)CC4)C3)c21 [Example 2, 3-(4-(3-((S)-2-((((4-(-3-(difluoromethyl)-4-(4-(5-morpholinopyrazolo [1,5-a]pyrimidin-3-yl)-1H-1,2,3-triazol-1-yl)-1H-pyrazol-1-ylcyclohexyl)methyl)amino)methyl)morpholinyl)propyl)-3-methyl-2-oxo-2,3-dihydro-1H-benzo[d]imidazol-1-yl)piperidine-2,6-dione]
- Dmax: < 60%
- DC50: < 0.5 nM

SMILES: Cn1c(=O)n(C2CCC(=O)NC2=O)c2cccc(C#CC3(O)CN(C[C@H]4CC[C@H](n5cc(-n6cc(-c7ccc8cc(C(N)=O)cnn78)nn6)c(C(F)F)n5)CC4)C3)c21 (some centres unmarked) [Example 19]
- Dmax: 70 to 80%
- DC50: 0.5 to 1 nM
